Laboratory results: patent US8637526B2, “Pyrazolopyrimidine JAK inhibitor compounds and methods” (Genentech, Inc., priority 2008, dated 2014)

Tests used:
[1] = system: Set-2 cells, which express the JAK2V617F mutant protein; experiment: STAT5 phosphorylation in Set-2 cells (JAK2-dependent signaling, MSD); format: cell-based; details: Homo sapiens, SET-2, 1 h, read-out: pSTAT5 SET2 EC50
Experimental: The activities of compounds were determined in cell-based assays that are designed to measure JAK2-dependent signaling or proliferation. Compounds were serially diluted in DMSO and incubated with Set-2 cells (German Collection of Microorganisms and Cell Cultures (DSMZ); Braunschweig, Germany), which express the JAK2V617F mutant protein, in 96-well microtiter plates for 1 hr at 37° C. in RPMI medium at a final cell density of 100,000 cells per well and a final DMSO concentration of 0.57%. Compound-mediated effects on STATS phosphorylation were then measured in the lysates of incubated cells using the Meso Scale Discovery (MSD) technology (Gaithersburg, Md.) according to the manufacturer's protocol and EC50 values were determined. Alternatively, serially diluted compounds were added to 384-well microtiter plates in RPMI medium with 10% fetal bovine serum (Invitrogen Corp.; Carlsbad, Calif.) at a final cell density of 2500 cells per well and a final DMSO concentration of 0.3% and incubated at 37° C. for 72 hours. Cell viability was then determined using the CellTiter-Glo® Luminescent Cell Viability Assay according to the manufacturer's protocol (Promega; Madison, Wis.) and EC50 values were determined.

TF-1 cells [2] = experiment: IL-6-stimulated STAT3 phosphorylation in TF-1 cells (JAK1-dependent signaling, MSD); format: cell-based; details: Homo sapiens, TF-1, 0.5 h, read-out: IL6-pSTAT3 TF1 EC50
Experimental: (§1) The activities of compounds were determined in cell-based assays that are designed to measure JAK1 or JAK2-dependent signaling. Compounds were serially diluted in DMSO and incubated with TF-1 cells (American Type Culture Collection (ATCC); Manassas, Va.) in 384-well microtiter plates in OptiMEM medium without phenol red, 1% Charcoal/Dextran stripped FBS, 0.1 mM NEAA, 1 mM sodium pyruvate (Invitrogen Corp.; Carlsbad, Calif.) at a final cell density of 100,000 cells per well and a final DMSO concentration of 0.2%. Human recombinant IL-6 (R&D systems; Minneapolis, Minn.) or EPO (Invitrogen Corp.; Carlsbad, Calif.) was then added at a final concentration of 30 ng/mL or 10 Units/mL, respectively, to the microtiter plates containing the TF-1 cells and compound and the plates were incubated for 30 min at 37° C. Compound-mediated effects on STAT3 or STATS phosphorylation were then measured in the lysates of cells incubated in the presence of IL-6 or EPO, respectively, using the Meso Scale Discovery (MSD) technology (Gaithersburg, Md.) according to the manufacturer's protocol and EC50 values were determined.

NK92 cells = experiment: IL-12-stimulated STAT4 phosphorylation in NK92 cells (TYK2-dependent signaling, MSD); format: cell-based; details: NK92, 1 h, read-out: IL12-pSTAT4 NK92 EC50
Experimental: The activities of compounds were determined in cell-based assays that are designed to measure TYK2-dependent signaling. Compounds were serially diluted in DMSO and incubated with NK92 cells (American Type Culture Collection (ATCC); Manassas, Va.) in 96-well microtiter plates in RPMI medium at a final cell density of 100,000 cells per well and a final DMSO concentration of 0.57%. Human recombinant IL-12 (R&D systems; Minneapolis, Minn.) was then added at a final concentration of 10 ng/mL to the microtiter plates containing the NK92 cells and compound and the plates were incubated for 1 hr at 37° C. Compound-mediated effects on STAT4 phosphorylation were then measured in the lysates of incubated cells using the Meso Scale Discovery (MSD) technology (Gaithersburg, Md.) according to the manufacturer's protocol and EC50 values were determined

human JAK3 kinase domain = human JAK3 kinase domain (Homo sapiens (Human), UniProt P52333); experiment: biochemical; format: biochemical; details: enzymatic activity, 5 uM ATP; read-out: JAK3 Ki
Experimental: The activity of the JAK1, JAK2, JAK3 or TYK2 kinase domains was measured in vitro by monitoring phosphorylation of JAK3 derived peptides using the Caliper LabChip technology.
(§2) The activity of the isolated JAK3 kinase domain was measured by monitoring phosphorylation of a peptide derived from JAK3 ([…] fluorescently labeled on the N-terminus with 5-carboxyfluorescein using the Caliper LabChip technology (Caliper Life Sciences, Hopkinton, Mass.). […] Reactions were incubated at 22° C. in 384-well polypropylene microtiter plates for 30 minutes and then stopped by addition of 25 uL of an EDTA containing solution (100 mM Hepes pH 7.2, 0.015% Brij-35, 150 mM EDTA), resulting in a final EDTA concentration of 50 mM. After termination of the kinase reaction, the proportion of phosphorylated product was determined as a fraction of total peptide substrate using the Caliper LabChip 3000 according to the manufacturer's specifications.

human JAK1 kinase domain = human JAK1 kinase domain (Homo sapiens (Human), UniProt P23458); experiment: JAK1 Inhibition Assay Protocol (Caliper LabChip peptide phosphorylation); format: biochemical; details: enzymatic activity, 25 uM ATP
Source text: The catalytically active kinase domain of human JAK1, JAK2, JAK3 or TYK2 was purified from extracts of SF9 insect cells infected with a recombinant baculovirus expression vector encoding the human JAK1, JAK2, JAK3 or TYK2 kinase domains (JAK1 amino acid residues N852-D1154 according to the numbering of GenBank sequence accession number P23458, JAK2 amino acid residues D812-G1132 according to the numbering of GenBank sequence accession number NP_004963.1; JAK3 amino acid residues S783-S1124 according to the numbering of GenBank sequence accession number P52333, and TYK2 amino acid residues N873-C1187 according to the numbering of GenBank sequence accession number P29597). The activity of the JAK1, JAK2, JAK3 or TYK2 kinase domains can be measured by a number of direct and indirect methods, including quantification of phosphorylation of peptide substrates derived from the human JAK3 protein (Saltzman et al., Biochem. Biophys. Res. Commun. 246:627-633 (2004)). The activity of the JAK1, JAK2, JAK3 or TYK2 kinase domains was measured in vitro by monitoring phosphorylation of JAK3 derived peptides using the Caliper LabChip technology.
as §2, with “isolated JAK1 or TYK2” for “isolated JAK3”, “specifications. Ki values were then determined using the Morrison tight binding model (Morrison, J. F., Biochim. Biophys. Acta. 185:269-296 (1969); William, J. W. and Morrison, J. F., Meth. Enzymol., 63:437-467 (1979)).” for “specifications.”

TF-1 cells [3] = experiment: EPO-stimulated STAT5 phosphorylation in TF-1 cells (JAK2-dependent signaling, MSD); format: cell-based; details: Homo sapiens, TF-1, 0.5 h, read-out: EPO pSTAT5 TF1 EC50
Experimental: as §1

Sequence of human JAK1 kinase domain (P23458 852-1154): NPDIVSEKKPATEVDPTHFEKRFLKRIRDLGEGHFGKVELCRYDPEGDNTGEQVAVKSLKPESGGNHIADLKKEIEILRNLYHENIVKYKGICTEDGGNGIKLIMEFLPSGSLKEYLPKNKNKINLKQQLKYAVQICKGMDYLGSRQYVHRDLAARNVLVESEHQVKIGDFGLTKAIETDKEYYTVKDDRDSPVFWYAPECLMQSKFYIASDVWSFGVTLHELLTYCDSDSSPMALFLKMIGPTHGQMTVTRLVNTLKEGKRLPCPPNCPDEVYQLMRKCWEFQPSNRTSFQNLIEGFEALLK
Sequence of human JAK3 kinase domain (P52333 783-1124): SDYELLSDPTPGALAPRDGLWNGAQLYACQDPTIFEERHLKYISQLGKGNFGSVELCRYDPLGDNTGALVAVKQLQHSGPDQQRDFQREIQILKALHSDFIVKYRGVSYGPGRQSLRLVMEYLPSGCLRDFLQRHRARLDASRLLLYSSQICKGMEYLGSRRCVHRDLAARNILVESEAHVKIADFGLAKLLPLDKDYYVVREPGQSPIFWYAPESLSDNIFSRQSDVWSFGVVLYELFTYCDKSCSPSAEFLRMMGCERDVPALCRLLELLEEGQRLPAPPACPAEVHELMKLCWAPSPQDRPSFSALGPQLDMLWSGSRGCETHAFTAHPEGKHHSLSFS

## Cc1ccc(C)c(-c2nn(C)cc2NC(=O)c2cnn3ccc(N)nc23)c1 [Example 225, 5-amino-N-(3-(2,5-dimethylphenyl)-1-methyl-1H-pyrazol-4-yl)pyrazolo[1,5-a]pyrimidine-3-carboxamide]
[1]
  EC50: 12.8 nM
TF-1 cells [2]
  EC50: 130 nM
NK92 cells
  EC50: 119 nM

## Nc1ccn2ncc(C(=O)Nc3conc3-c3cccc(Cl)c3)c2n1 [Example 250, 5-Amino-pyrazolo[1,5-a]-pyrimidine-3-carboxylic acid [3-(3-chloro-phenyl)-isoxazol-4-yl]-amide]
Human JAK3 kinase domain
  Ki: 55.6 nM
Human JAK1 kinase domain
  Ki: 28.4 nM
TF-1 cells [2]
  EC50: 839 nM
NK92 cells
  EC50: 105 nM
TF-1 cells [3]
  EC50: 340 nM
